Measured values from patent US10801076B2, “Influenza A virus variants” (Vertex Pharmaceuticals Incorporated, priority 2014, dated 2020).

Tested on: A/Wisconsin/67/2005-p1
Experiment: microbe, parasite or virus in culture
Assay type: cell-based, influenza A virus (H3N2)
Conditions: Influenza A virus, MDCK, 72 h, read-out: Sensitivity to Compound 1 (EC50)

O=C(O)[C@H]1C2CCC(CC2)[C@@H]1Nc1nc(-c2c[nH]c3ncc(F)cc23)ncc1F [Compound 1]
EC50: 2 nM
